Measurements published in ChEMBL document CHEMBL4033705, “Screening for bioactive natural products from a 67-compound library of Glycyrrhiza inflata” (Bioorg Med Chem, 2017).

Experiments:
SW480 [1] = assay: Growth inhibition of human SW480 cells at 10 uM after 24 hrs by MTS assay relative to control; format: functional; conditions: SW480, 24 h, read-out: GI
[2] = target: Mushroom tyrosinase (Agaricus bisporus) (UniProt O42713+Q00024+C7FF04+C7FF05); assay: Inhibition of mushroom tyrosinase at 10 uM using L-tyrosine as substrate incubated for 15 mins followed by substrate addition relative to control
[3] = Inhibition of LPS-induced NF-kappaB transcription (unknown origin) expressed in human SW480 cells by luciferase reporter gene assay; format: cell-based
MCF7 [4] = assay: Growth inhibition of human MCF7 cells at 10 uM after 24 hrs by MTS assay relative to control; format: functional; conditions: MCF7, 24 h, read-out: GI
[5] = Growth inhibition of human HEK293T cells at 10 uM after 24 hrs by MTS assay relative to control; format: cell-based, HEK-293T; conditions: HEK293T cells, read-out: GI
HepG2 [6] = assay: Growth inhibition of human HepG2 cells at 10 uM after 24 hrs by MTS assay relative to control; format: functional; conditions: HepG2, 24 h, read-out: GI
[7] = Growth inhibition of human LO2 cells at 10 uM after 24 hrs by MTS assay relative to control; format: cell-based, L02; conditions: LO2 cells, read-out: GI
Homo sapiens = organism: Homo sapiens; assay: Inhibition of LPS-induced NF-kappaB transcription (unknown origin) expressed in human SW480 cells at 10 uM by luciferase reporter gene assay; format: cell-based
[8] = target: T1, Tyrosine-protein phosphatase non-receptor type 1 (Homo sapiens) (UniProt P18031); assay: Inhibition of recombinant human PTP1B using p-nitrophenyl phosphate as substrate at 10 uM after 30 mins relative to control
T1 sequence (whole entry): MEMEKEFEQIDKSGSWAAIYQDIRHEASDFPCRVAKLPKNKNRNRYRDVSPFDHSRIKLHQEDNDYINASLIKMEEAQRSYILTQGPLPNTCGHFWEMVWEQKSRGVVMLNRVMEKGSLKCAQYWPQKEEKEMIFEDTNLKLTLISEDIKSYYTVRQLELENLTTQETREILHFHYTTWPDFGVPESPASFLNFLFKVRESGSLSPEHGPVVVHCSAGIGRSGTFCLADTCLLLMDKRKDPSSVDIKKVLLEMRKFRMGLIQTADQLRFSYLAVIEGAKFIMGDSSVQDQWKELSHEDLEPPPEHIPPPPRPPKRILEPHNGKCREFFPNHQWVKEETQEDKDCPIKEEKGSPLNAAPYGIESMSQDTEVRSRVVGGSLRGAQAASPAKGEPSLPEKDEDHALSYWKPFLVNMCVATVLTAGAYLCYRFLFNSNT

RAW264.7 [9] = assay: Antiinflammatory activity in mouse RAW264.7 cells assessed as inhibition of LPS-induced NO production at 10 uM after 24 hrs by Griess reagent based assay relative to control; format: functional; conditions: RAW264.7, 24 h
[10] = target: T2, Tyrosine-protein phosphatase non-receptor type 1 (Homo sapiens, UniProt P18031); assay: Inhibition of recombinant human PTP1B using p-nitrophenyl phosphate as substrate after 30 mins
T2 sequence (P18031 whole entry): T1 sequence (whole entry)

SW480 [11] = assay: Cytotoxicity against human SW480 cells assessed as reduction in cell viability after 24 hrs by MTS assay; format: functional, cell-based; conditions: SW480, 24 h
MCF7 [12] = assay: Cytotoxicity against human MCF7 cells assessed as reduction in cell viability after 24 hrs by MTS assay; format: functional, cell-based; conditions: MCF7, 24 h
RAW264.7 [13] = assay: Antiinflammatory activity in mouse RAW264.7 cells assessed as inhibition of LPS-induced NO production after 24 hrs by Griess reagent based assay; format: functional, cell-based; conditions: RAW264.7, 24 h
HepG2 [14] = assay: Cytotoxicity against human HepG2 cells assessed as reduction in cell viability after 24 hrs by MTS assay; format: functional, cell-based; conditions: HepG2, 24 h

Row | Structure (SMILES) | inhibition [2] [%] | IC50 [3] [µM] | inhibition [8] [%] | IC50 [10] [µM] | IC50 (RAW264.7 [13]) [µM] | inhibition of growth at 10 µM (SW480 [1]) [%] | inhibition of growth at 10 µM (MCF7 [4]) [%] | inhibition at 24 h, 10 µM [5] [%] | inhibition of growth at 10 µM (HepG2 [6]) [%] | inhibition at 24 h, 10 µM [7] [%] | inhibition (Homo sapiens) [%] | inhibition at 10 µM (RAW264.7 [9]) [%] | IC50 (SW480 [11]) [µM] | IC50 (MCF7 [12]) [µM] | IC50 (HepG2 [14]) [µM]
1 | CC(C)=CCc1c(O)ccc([C@H]2COc3cc(O)c(CC=C(C)C)c(O)c3C2=O)c1O | 7 |  | 98 | 0.84 |  | 2 | 44 | 4 | 25 | 0 | 37 | 14 |  |  | 
2 | CC1(C)C=Cc2c(ccc(-c3cc4ccc(O)cc4o3)c2O)O1 | 14 | 3.1 | 15 |  |  | 31 | 0 | 11 | 5 | 4 | 73 | 22 |  |  | 
3 | CC(C)=CCc1cc(-c2cc(=O)c3c(O)c(CC=C(C)C)c(O)cc3o2)ccc1O | 12 |  | 94 | 0.55 |  | 86 | 25 | 3 | 34 | 33 | 0 | 5 | 6.35 |  | 
4 | CC(C)=CCc1cc([C@@H]2CC(=O)c3c(cc(O)c(CC=C(C)C)c3O)O2)ccc1O [MACARANGAFLAVANONE B] | 5 |  | 90 | 1.03 |  | 87 | 36 |  | 10 |  | 24 | 5 |  |  | 
5 | CC(C)=CCc1c(O)cc2occ(-c3ccc4c(c3O)C=CC(C)(C)O4)c(=O)c2c1O | 7 |  | 34 |  |  | 99 | 79 | 39 | 75 | 16 | 23 | 26 | 6.72 | 8.58 | 7.07
6 | CC(C)=CCc1cc([C@@H]2CC(=O)c3ccc(O)c(CC=C(C)C)c3O2)ccc1O [GLABROL] | 8 |  | 92 | 0.31 |  | 98 | 97 | 36 | 98 | 16 | 21 | 6 | 5.15 | 7.62 | 2.83
7 | CC(C)=CCc1c(O)c(CC=C(C)C)c2occ(-c3ccc(O)cc3)c(=O)c2c1O | 7 |  | 51 |  |  | 81 | 73 | 49 | 30 | 12 | 26 | 22 | 8.08 | 8.58 | 
8 | CC(C)=CCc1cc(-c2coc3c(CC=C(C)C)c(O)cc(O)c3c2=O)cc(O)c1O | 2 |  | 92 | 4.5 |  | 55 | 3 |  | 0 |  | 14 | 0 |  |  | 

The next lines start with results.

Row | inhibition [2] [%] | IC50 [3] [µM] | inhibition [8] [%] | IC50 [10] [µM] | IC50 (RAW264.7 [13]) [µM] | Structure (SMILES) | inhibition of growth at 10 µM (SW480 [1]) [%] | inhibition of growth at 10 µM (MCF7 [4]) [%] | inhibition at 24 h, 10 µM [5] [%] | inhibition of growth at 10 µM (HepG2 [6]) [%] | inhibition at 24 h, 10 µM [7] [%] | inhibition (Homo sapiens) [%] | inhibition at 10 µM (RAW264.7 [9]) [%] | IC50 (SW480 [11]) [µM] | IC50 (MCF7 [12]) [µM] | IC50 (HepG2 [14]) [µM]
9 | 1 | 7.27 | 33 |  |  | CC1(C)C=Cc2cc(/C=C/C(=O)c3ccc(O)cc3O)ccc2O1 | 14 | 14 | 7 | 0 | 5 | 78 | 23 |  |  | 
10 | 12 | 6.67 | 48 |  |  | C=CC(C)(C)c1cc(/C=C/C(=O)c2ccc(O)cc2)c(OC)c(O)c1O | 36 | 31 | 11 | 22 | 5 | 66 | 50 |  |  | 
11 | 16 |  | 98 | 0.97 |  | CC(C)=CCc1cc(/C=C/C(=O)c2ccc(O)cc2O)ccc1O [LICOAGROCHALCONE A] | 12 | 2 | 2 | 2 | 3 | 25 | 16 |  |  | 
12 | 0 |  | 90 | 0.45 |  | CC(C)=CCc1cc(/C=C/C(=O)c2ccc(O)c(CC=C(C)C)c2O)ccc1O [KANZONOL C] | 96 | 79 | 21 | 27 | 34 | 6 | 19 | 6.1 | 9.15 | 
13 | 2 |  | 18 |  | 3.83 | CC(C)=CCc1c(O)cc(O)c2c(=O)cc(-c3ccc(O)cc3)oc12 | 19 | 0 |  | 21 |  | 3 | 58 |  |  | 
14 | 1 | 13.9 | 18 |  |  | C=CC(C)(C)c1cc(/C=C/C(=O)c2ccc(O)cc2)c(OC)cc1O [LICOAGROCHACONE A] | 7 | 10 | 4 | 14 | 16 | 56 | 39 |  |  | 
15 | 8 |  | 64 |  | 8.78 | COc1c(/C=C/C(=O)c2ccc(O)cc2)ccc(O)c1O | 9 | 13 | 7 | 4 | 6 | 4 | 71 to 73 |  |  | 
